Data on 88 compounds can be found in a melting point compilation (Tetko et al.; mined from patent text by program, amines drawn as free bases though some values may be those of a salt).

As a reminder, the melting point is the temperature of the solid-liquid transition. In turn, `COC(=O)Cc1ccc(OCC(C)NCC(O)c2cccc(F)c2)cc1` (stereo not drawn) displayed a melting point of 52 °C.

Take `CC(=O)Oc1ccc(C(=O)Nc2cccc(OCc3cncc4ccccc34)c2)cc1C(C)(C)C`: the melting point was in the range of 83 to 86 °C. The same measure for `COC(=O)c1cc(-c2ccc(S(C)(=O)=O)cc2)n(C2CCCCCC2)n1`: 115 to 117 °C; for `CC(=O)Nc1nc2c(nc(F)n2COCCOC(C)=O)c(=O)[nH]1`: 196 to 198 °C.

Consider `Cn1ncc(Cl)c(N)c1=O`, for which the melting point fell in the range of 106 to 107 °C. The same measure for `Cc1c(-c2ccc(NC(=O)NC(C)(C)C)cc2)nc2n1CCc1ccccc1C2OC1CCN(C)CC1` (stereo not drawn): 173 °C; for `Cc1cc(O)cc(C)c1[N+](=O)[O-]`: 106 to 108 °C. `CC12CCC3=C4CCC(=O)C=C4CCC3C1C=CC2=O` (stereo not drawn) displayed a melting point of 182 to 183 °C.

In turn, `Cc1cc(-n2cnn(Cc3ccc(F)cc3)c2=O)sc1C(=O)NCc1cnn(C)c1` registered a melting point of 168 to 170 °C. The same measure for `N#Cc1cc(N)ccc1N1CCCCC1`: 148 to 149 °C.

`Clc1ccc(-c2[nH]nc(C3=CCN4CCC[C@H]4C3)c2-c2ccncc2)cc1`: the melting point fell in the range of 211 to 212 °C. The same measure for `C=Cc1cnc2c(NC(=O)c3c(Cl)cccc3Cl)cccc2c1CCl`: 184 to 186 °C. On to `CS(=O)(=O)N1Cc2ccccc2C1`, for which the melting point lay within 131 to 132 °C.

In turn, `ClCCN1c2ccc(Cl)cc2C(c2ccsc2)=NCC1CCl` (stereo not drawn) had a melting point of 115 to 116 °C. In turn, `Cc1nc(C#CCCc2nc3ccccc3o2)cn1C` gave a melting point of 117 to 119 °C. The same measure for `CON(C)C(=O)CCc1nnc(-c2ccc3c(c2)CCO3)o1`: 112 to 113 °C; for `[N-]=[N+]=Nc1c([N+](=O)[O-])cnn1-c1c(Cl)cc(C(F)(F)F)c(Cl)c1Cl`: 84 to 88 °C. The same measure for `O=C1C=CC(=O)c2ncccc21`: 110 °C; for `O=C(O)c1ccc(Cn2ccc(OCc3ccccc3)c(Br)c2=O)cc1`: 251 to 256 °C. `O=C(c1cc(C(F)(F)F)cc(C(F)(F)F)c1)N1CCN(C(=O)CN2CCC(O)(c3ccccc3)CC2)C(c2ccccc2)C1` (racemic) gave a melting point of 101 to 102 °C. The same measure for `COc1ncnc(OC)c1[N+](=O)[O-]`: 168 to 170 °C; for `COC(=O)CCc1cc2nc(C(F)(F)F)ccc2n1S(=O)(=O)c1ccccc1`: 119 °C; for `CCCC(=O)Oc1ccc2sc(S(N)(=O)=O)nc2c1`: 132 °C. For the compound `O=S(=O)(c1ccc(Cl)cc1)N1CCC2(C=Cc3ccccc32)CC1`, the melting point lay in the range of 179 to 181 °C. Consider `CCC(C)Nc1c(N)cc(C)c(C)c1[N+](=O)[O-]` (stereo not drawn), for which the melting point lay in the range of 36 to 37 °C. Compound `O=c1ccc(-c2ccc(Oc3ccc4c(c3)CCN(C3CCC3)CC4)nc2)n[nH]1` came in with a melting point of 215 to 220 °C. The same measure for `Cc1cc(-c2cccc(C(F)(F)F)c2)c2nc(OC(F)F)cnc2c1`: 103 to 104 °C; for `Cc1nc2c3c(c(C(=O)O)cc2n1C)CCC(c1ccccc1)N3` (stereo not drawn): 325 to 326 °C. The same measure for `CC12CC(F)C3C(CCC4=CC(=O)CCC43C)C1CCC2=O` (stereo not drawn): 162 to 164 °C; for `O=c1c(-c2cccc(C(F)(F)F)c2)c(Cl)cnn1-c1ccc(F)cc1`: 88 to 90 °C; for `CNC(=O)COc1cc(-n2c(=O)cc(C(F)(F)F)n(C)c2=O)c(F)cc1Cl`: 190 to 192 °C.

On to `O=C1NC(CN2CCN(c3ccccc3)CC2)Cc2c[nH]c3cccc1c23` (stereo not drawn), for which the melting point lay in the range of 184 to 185 °C. The figure for `CC(C)N1CCC(C(C#N)(c2ccccc2)c2ccccc2)C1` (stereo not drawn) is 73 to 74 °C; for `Cc1c(Cl)ccc(S(=O)(=O)Cl)c1Cl` it is 75 °C. On to `O=c1[nH][nH]c(=O)c2c(O)c3ccc(C(F)(F)F)cc3nc12`, for which the melting point was in the range of 170 to 172 °C. The same measure for `CCCCc1oc2ccccc2c1S(=O)(=O)c1ccc(O)cc1`: 163 to 165 °C. Consider `O=C(O)CCCCCCCn1ncc(-c2ccccc2)c1-c1ccccc1`, for which the melting point lay in the range of 94 to 95 °C. The figure for `O=C(Nc1ccc(F)c(C(F)(F)F)c1)c1csc2cc(Oc3cc(CO)ncn3)ccc12` is 138 to 140 °C; for `O=C1NCN(c2ccccc2)C12CCN(CCCn1c(=O)[nH]c3cc(Cl)c(Cl)cc31)CC2` it is 275 °C. The same measure for `CC(OCc1cc2nc(C(F)(F)F)ccc2n1S(=O)(=O)c1ccccc1)C(=O)O` (stereo not drawn): 140 °C. The same measure for `Cc1cc(Br)ccc1-n1c(CF)nc2ccc([N+](=O)[O-])cc2c1=O`: 208 to 210 °C. In the case of `O=C(CCl)N[C@H]1CC[C@H](O)CC1`, the melting point is 149 to 151 °C. Take `CC(C)(C)NC(=S)N1CCN(c2cnccn2)CC1`: the melting point was 153 to 156 °C.

Turning to `Cc1nc(C(=O)NS(=O)(=O)c2c(C)csc2C(=O)OC(C)C)no1`, the melting point is 142 °C.

As to `COc1cc(Cc2cnc(N)nc2N)cc2c1OC(C)(C)C=C2Br`, the melting point is 238 to 239 °C. The same measure for `CC#Cc1c(-c2ccc(S(C)(=O)=O)cc2)cnn(-c2ccc(F)c(F)c2)c1=O`: 149 to 150 °C; for `CCOC(=O)C(N=CC1C=C(Cl)C=CC1(OC(C)=O)c1ccccc1)C(=O)OCC` (stereo not drawn): 85 to 87 °C. Consider `CN1C(=O)C2C3CCC(CC3)C2(c2ccc(F)c(F)c2)C1=O` (stereo not drawn), for which the melting point lay in the range of 133 to 136 °C. The compound `NC(=O)Cc1ccc(OCCc2coc(-c3ccccc3)n2)cc1` showed a melting point of 180 to 184 °C.

In the case of `CCOC(=O)C=C(C)c1ccc(-c2ccccc2)cc1`, the melting point is 76 to 78 °C. In turn, `O=C(c1ccccc1)c1noc(CS(=O)c2ccccc2)n1` (stereo not drawn) came in with a melting point of 79 to 81 °C. Consider `COC(=O)Cc1ccc(-c2cc(O)c3ccccc3c2O)n1C`, for which the melting point lay in the range of 200 to 201 °C. Take `Cc1cc(F)ccc1-c1nc(NCCNC(=O)NC2CCCCC2)nc2c1ccc(=O)n2-c1c(F)cccc1F`: the melting point lay in the range of 131 to 144 °C. The figure for `COc1cc2ncc(C#N)c(Nc3ccc(Sc4nccn4C)c(Cl)c3)c2cc1OC` is 302 to 307 °C; for `COc1nn(-c2cccc(N(C)C(C)=O)c2)c(=O)n(Cc2ccc(Cl)cc2)c1=O` it is 157 °C; for `c1ccc(COCCOc2ccc(OCc3ccccc3)cc2)cc1` it is 71 to 73 °C. The same measure for `CC(C)CC1NCCNC1=O` (stereo not drawn): 75 to 77 °C. The figure for `CN(C)S(=O)(=O)c1cc2c(c(Cl)c1Cl)OC(C(=O)OCC(=O)OC(c1ccccc1)c1ccccc1)C2` (stereo not drawn) is 56 to 58 °C; for `O=C(O)c1cc(F)ccc1Sc1ccccc1` it is 146 to 148 °C; for `Cc1cc2c(-c3cccc(CCC(=O)O)c3)c(CC(=O)Nc3ccc(F)cc3C(F)(F)F)c(=O)oc2cc1Cl` it is 212 to 214 °C. Consider `CON(C)S(=O)(=O)c1ccccc1S(N)(=O)=O`, for which the melting point fell in the range of 136 to 140 °C.

The compound `CCCn1c(-c2ccccc2)cc(=O)c(C(=O)O)c1-c1ccccc1` registered a melting point of 166 to 167 °C. The same measure for `O=C(Nc1nnn[nH]1)c1cccc([N+](=O)[O-])c1Cl`: 279 °C; for `O=C(OCc1ccccc1)C1=CCC2C(C(O)c3ccccc3)C(=O)N12` (stereo not drawn): 124 °C. The figure for `O=[N+]([O-])c1ccc(-c2nsc(Cl)n2)cc1` is 143 to 145 °C; for `O=Cc1ccc2noc(-c3cccc(Cl)c3)c2c1` it is 148 °C. The same measure for `Cc1cc(SC2=C(O)CC(CCc3ccsc3CO)(C(C)C)OC2=O)c(C(C)(C)C)cc1CO` (stereo not drawn): 87 to 90 °C; for `CCCCCCCCCCCC(=O)NC(=O)N1CC1C#N` (stereo not drawn): 140 to 143 °C. In turn, `COc1cccc(OC)c1-c1cc(C(=O)NC2(C(=O)O)C3CC4CC(C3)CC2C4)nn1-c1ccc(N)cc1C` (stereo not drawn) came in with a melting point of 205 °C. Compound `Cc1c(C)c2c(c(C)c1O)CCC(C)(CCOc1ccc(CC3SC(=N)NC3=O)cc1)O2` (stereo not drawn) had a melting point of 175 to 180 °C. `O=[N+]([O-])c1ccc(S(=O)(=O)On2nnc3ccccc32)cc1` came in with a melting point of 120 to 122 °C. The same measure for `Nc1ncnc2c1c(-c1cccnc1)nn2Cc1oc2ccccc2c(=O)c1-c1ccccc1`: 253 to 255 °C; for `CCCN1CCN(c2cccc3c2C[C@H](NC(C)=O)CC3)CC1`: 139 to 140 °C; for `COc1ccc(CNc2ccccc2C(=O)Nc2ccc(Br)c(C(F)(F)F)c2)cn1`: 101 to 103 °C. The same measure for `O=C1c2c(O)cccc2C(c2cccs2)c2cccc(O)c21`: 181 to 182 °C; for `CN(C)c1snc2c1c(N)nc(=O)n2Cc1ccccc1`: 190 to 195 °C. The same measure for `CCCOc1ccc(NC=C(C(=O)OCC)C(=O)OCC)nc1C`: 116 to 118 °C; for `CC1(C)O[C@@]23CC(=O)CC[C@@]2(C)CC[C@@H]1C3`: 60 to 61 °C. On to `CC(C)=NOCOc1cc(-n2c(=O)cc(C(F)(F)F)n(C)c2=O)c(F)cc1Br`, for which the melting point is 121 °C. `c1ccc2c(c1)cc(Cn1ccnc1)c1ccsc12` registered a melting point of 109 to 111 °C. In turn, `Cc1cc(OC(=O)c2ccc(Cl)cc2)n(C)n1` returned a melting point of 100 to 101 °C. The figure for `O=C(O)c1cc2c(cc1C(=O)O)C(c1ccccc1)(C(F)(F)F)c1cc(C(=O)O)c(C(=O)O)cc1O2` is 276 °C; for `CCCN(C)C(=O)Nc1c(C(=O)c2ccccc2)[nH]c2cc(Cl)ccc12` it is 168 to 171 °C; for `CC(=O)NCCc1cccc2ccc(OCCCCOc3ccc4occ(CCNC(C)=O)c4c3)cc12` it is 160 to 162 °C. Regarding `Cc1ccc2c(Cl)c3ccccc3nc2c1`, the melting point fell in the range of 117 to 118 °C. The figure for `CCCc1c(SCCCOc2ccc3c(=O)cc(C(=O)OCC)oc3c2CCC)ccc2c(=O)cc(C(=O)OCC)[nH]c12` is 168 to 170 °C; for `CCOC(=O)CC(O)CC(O)C=Cc1c(C(C)C)oc(-c2ccccc2)c1-c1ccc(F)cc1` (stereo not drawn) it is 98 to 100 °C; for `CCCCc1c(C(=O)c2ccc(O)cc2)n(C)c2ccc([N+](=O)[O-])cc12` it is 172 °C.
